Assay [1] has as its target T1, Tyrosinase (Agaricus bisporus, UniProt O42713).
T1 sequence (O42713 whole entry): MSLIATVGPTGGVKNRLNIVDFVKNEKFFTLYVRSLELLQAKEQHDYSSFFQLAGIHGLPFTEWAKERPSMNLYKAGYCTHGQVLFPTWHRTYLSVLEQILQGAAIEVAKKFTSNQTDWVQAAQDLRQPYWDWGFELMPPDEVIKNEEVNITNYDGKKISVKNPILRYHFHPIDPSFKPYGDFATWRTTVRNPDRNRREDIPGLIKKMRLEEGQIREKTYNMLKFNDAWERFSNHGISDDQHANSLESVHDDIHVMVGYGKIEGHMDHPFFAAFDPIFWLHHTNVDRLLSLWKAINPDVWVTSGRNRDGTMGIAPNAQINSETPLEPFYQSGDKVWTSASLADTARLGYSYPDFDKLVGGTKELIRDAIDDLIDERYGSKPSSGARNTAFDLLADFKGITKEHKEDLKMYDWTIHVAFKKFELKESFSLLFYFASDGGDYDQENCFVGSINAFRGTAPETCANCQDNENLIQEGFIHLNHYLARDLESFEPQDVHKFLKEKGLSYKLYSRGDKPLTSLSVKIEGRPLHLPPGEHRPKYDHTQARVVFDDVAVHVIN
Description: Inhibition of mushroom tyrosinase assessed as reduction in diphenolase activity using L-DOPA substrate pre-incubated for 20 mins at 30 degC

For assay [2], the target named is T2, Tyrosinase (Agaricus bisporus) (UniProt O42713).
T2 sequence (whole entry): T1 sequence (O42713 whole entry)
The assay can be described thus: Competitive inhibition of mushroom tyrosinase assessed as reduction in L-DOPA oxidation by Lineweaver-Burk plot.

Active and inactive are the calls of the source. No cut-off for these calls is given here.

As a reminder, the IC50 is the midpoint of a concentration-inhibition curve. A low value points to higher potency. Take `CC(=O)N1N=C(c2ccc(O)cc2)CC1c1ccc(O)c(O)c1` (stereo unspecified): the IC50 in assay [1] worked out at 1.07 µM.
In the case of `O=C(/C=C/c1ccc(O)cc1O)c1ccc(O)cc1O`, the inhibition entry in assay [2] is “Active”.
Turning to `CC(=O)N1N=C(c2ccccc2O)CC1c1cccc(O)c1` (stereo unspecified), the IC50 in assay [1] is more than 200 µM.
Turning to `COc1cc(C2CC(c3ccc(O)cc3O)=NN2C(C)=O)ccc1O` (stereo unspecified), the inhibition entry in assay [2] is “Active”. Besides, the IC50 in assay [1] was found to be 0.301 µM.
Take `O=C1CC(c2ccc(O)cc2O)Oc2cc(O)cc(O)c21` (stereo unspecified): the inhibition entry in assay [2] was “Active”.
As for `COc1cc(C2CC(c3ccc(O)cc3O)=NN2)ccc1O` (stereo unspecified), the half-maximal inhibitory concentration (IC50) in assay [1] was determined as 2.43 µM.
Regarding `CC(=O)N1N=C(c2ccc(O)cc2O)CC1c1cccc(O)c1` (stereo unspecified), in assay [2], the inhibition entry was “Active”. In addition, in assay [1], half-maximal inhibition (IC50) required 0.863 µM.
Regarding `CC(=O)N1N=C(c2cc(O)cc(O)c2)CC1c1cccc(O)c1` (stereo unspecified), the IC50 in assay [1] is more than 200 µM.
As to `Oc1cccc(C2CC(c3ccc(O)cc3O)=NN2)c1` (stereo unspecified), in assay [2], the inhibition entry was “Active”. Moreover, half-maximal inhibition in assay [1] (IC50) required 0.837 µM.
`O=c1cc(-c2ccc(O)cc2O)oc2cc(O)cc(O)c12` [NORARTOCARPETIN] yielded an IC50 in assay [1] of more than 200 µM.
For the compound `CC(=O)N1N=C(c2ccccc2O)CC1c1ccc(O)cc1` (stereo unspecified), half-maximal inhibition in assay [1] (IC50) was put at 13.1 µM.
On the same count and under the same terms, for `CC(=O)N1N=C(c2ccc(O)cc2)CC1c1ccc(O)cc1` (stereo unspecified) the value was 3.51 µM; for `COc1cc(C2CC(c3ccc(O)cc3)=NN2C(C)=O)ccc1O` (stereo unspecified), more than 200 µM; for `Oc1ccc(C2CC(c3ccccc3O)=NN2)cc1` (stereo unspecified), 11.8 µM.
As for `CC(=O)N1N=C(c2ccc(O)cc2O)CC1c1ccc(O)c(O)c1` (stereo unspecified), in assay [2], the inhibition entry is “Active”. The compound further yielded an IC50 in assay [1] of 2.74 µM.
In the case of `CC(=O)N1N=C(c2ccc(O)cc2O)CC1c1ccc(O)cc1` (stereo unspecified), in assay [2], the inhibition entry was “Active”. The compound further had a 50% inhibitory concentration (IC50) in assay [1] of 1.69 µM.
In assay [1], `COc1cc(O)ccc1C1CC(c2ccccc2O)=NN1C(C)=O` (stereo unspecified) had an IC50 of more than 200 µM.
As for `CC(=O)N1N=C(c2ccccc2O)CC1c1ccc(O)c(O)c1` (stereo unspecified), the IC50 in assay [1] was more than 200 µM.
Regarding `Oc1ccc(C2CC(c3ccc(O)cc3O)=NN2)cc1` (stereo unspecified), in assay [2], the inhibition entry was “Active”. In addition, the IC50 in assay [1] was 0.882 µM.
The compound `COc1cc(C2CC(c3ccccc3O)=NN2C(C)=O)ccc1O` (stereo unspecified) came in with an IC50 in assay [1] of 13.4 µM.
Still for that read-out and setting: for `CC(=O)N1N=C(c2ccc(O)cc2O)CC1c1ccc(O)c([N+](=O)[O-])c1` (stereo unspecified) the value was more than 200 µM; for `CC(=O)N1N=C(c2ccc(O)cc2)CC1c1cccc(O)c1` (stereo unspecified), 147 µM; for `COc1cc(OC)cc(-c2nc(-c3ccc(O)cc3O)cs2)c1`, 2 µM.
Consider `O=C(OCc1ccc(O)cc1)c1ccc(O)cc1O`, for which the inhibition result in assay [2] was “Active”.
`CC(=O)N1N=C(c2cc(O)cc(O)c2)CC1c1ccc(O)cc1` (stereo unspecified) gave a half-inhibitory concentration (IC50) in assay [1] of 161 µM.

The values above are taken from ChEMBL document CHEMBL2331134, “Design and synthesis of 3,5-diaryl-4,5-dihydro-1H-pyrazoles as new tyrosinase inhibitors” (Bioorg Med Chem, 2013).
